Source: article PMC7771325 (Journal of medicinal chemistry, 2020)

Test: Aqueous solubility
Format: physicochemical
Settings: resisted cocrystallization attempts

SMILES: Cn1cc(-c2[nH]c3cc(NC(=O)[C@H](N)C4CCCCC4)cc4c3c2C=NNC4=O)cn1 [PF-477736]
- aqueous solubility: low aqueous solubility
